Legend:
Assay in all cases: relative viability (nuclei count vs DMSO), 5 days (fraction); higher = more cells survive
[1] = compound: COc1cc2nc(N3CCCN(C)CC3)nc(NC3CCN(Cc4ccccc4)CC3)c2cc1OC + COc1cc2c(Oc3ccc(NC(=O)C4(C(=O)Nc5ccc(F)cc5)CC4)cc3F)ccnc2cc1OCCCN1CCOCC1 [Foretinib] (partner 0.25 µM)
In short: (§1)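 Lung cancer cell lines were seeded in 1536-well plates and dosed by pin tool the next day, with either a single drug or a fixed anchor-drug dose combined with five library-drug doses (not always all listed) spaced in √10 steps. Five days later, one step fixed the cells and stained their nuclei (final 0.05% Triton X-100, 1% formaldehyde, 1 ug/ml Hoechst), and nuclei were counted on 4× images. Relative viability is the nuclei count in treated wells divided by the count in vehicle wells, and each value is the median of duplicate plates.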

AZD6482 + OSI-027 = compound: Cc1cc([C@@H](C)Nc2ccccc2C(=O)O)c2nc(N3CCOCC3)cc(=O)n2c1 [AZD6482] + COc1cccc2cc(-c3nc([C@H]4CC[C@H](C(=O)O)CC4)n4ncnc(N)c34)[nH]c12 [OSI-027] (partner 0.5 µM)
In short: as §1

AZD6482 + Lapatinib = compound: Cc1cc([C@@H](C)Nc2ccccc2C(=O)O)c2nc(N3CCOCC3)cc(=O)n2c1 [AZD6482] + CS(=O)(=O)CCNCc1ccc(-c2ccc3ncnc(Nc4ccc(OCc5cccc(F)c5)c(Cl)c4)c3c2)o1 [Lapatinib] (partner 2 µM)
In short: as §1

AZD6482 + Pemetrexed = compound: Cc1cc([C@@H](C)Nc2ccccc2C(=O)O)c2nc(N3CCOCC3)cc(=O)n2c1 [AZD6482] + Nc1nc2[nH]cc(CCc3ccc(C(=O)N[C@@H](CCC(=O)O)C(=O)O)cc3)c2c(=O)[nH]1 [Pemetrexed] (partner 0.2 µM)
In short: as §1

Row | Cell Line | relative viability ([1]; first compound 0.2 µM) | relative viability ([1]; first compound 0.6325 µM) | relative viability ([1]; first compound 2 µM) | relative viability ([1]; first compound 6.325 µM) | relative viability (AZD6482 + OSI-027; first compound 0.08 µM) | relative viability (AZD6482 + OSI-027; first compound 0.253 µM) | relative viability (AZD6482 + OSI-027; first compound 0.8 µM) | relative viability (AZD6482 + OSI-027; first compound 2.53 µM) | relative viability (AZD6482 + OSI-027; first compound 8 µM) | relative viability (AZD6482 + Lapatinib; first compound 0.08 µM) | relative viability (AZD6482 + Lapatinib; first compound 0.253 µM) | relative viability (AZD6482 + Lapatinib; first compound 0.8 µM) | relative viability (AZD6482 + Lapatinib; first compound 2.53 µM) | relative viability (AZD6482 + Lapatinib; first compound 8 µM) | relative viability (AZD6482 + Pemetrexed; first compound 0.08 µM) | relative viability (AZD6482 + Pemetrexed; first compound 0.253 µM) | relative viability (AZD6482 + Pemetrexed; first compound 0.8 µM) | relative viability (AZD6482 + Pemetrexed; first compound 2.53 µM) | relative viability (AZD6482 + Pemetrexed; first compound 8 µM)
1 | NCI-H322M | 0.899 | 0.94 | 1.05 | 0.923 | 0.523 | 0.497 | 0.531 | 0.317 | 0.414 | 0.53 | 0.441 | 0.561 | 0.357 | 0.495 | 0.572 | 0.61 | 0.62 | 0.49 | 0.498
2 | NCI-H358 | 0.701 | 0.824 | 0.81 | 0.566 | 0.711 | 0.557 | 0.662 | 0.257 | 0.312 | 0.443 | 0.417 | 0.386 | 0.258 | 0.365 | 0.16 | 0.174 | 0.164 | 0.154 | 0.145
3 | NCI-H460 | 0.922 | 0.952 | 1.03 | 0.993 | 0.631 | 0.589 | 0.543 | 0.326 | 0.292 | 0.869 | 0.796 | 1.17 | 0.585 | 0.758 | 0.0644 | 0.0667 | 0.0599 | 0.0555 | 0.0589
4 | NCI-H520 | 0.683 | 0.633 | 0.622 | 0.598 | 0.214 | 0.176 | 0.211 | 0.178 | 0.178 | 0.644 | 0.397 | 0.619 |  | 0.263 | 0.501 | 0.409 | 0.394 | 0.144 | 0.222
5 | NCI-H596 | 0.847 | 0.902 | 0.78 | 0.76 | 0.676 | 0.596 | 0.809 | 0.732 | 0.559 | 0.722 | 0.953 | 1.06 | 0.873 | 0.853 | 0.451 | 0.485 | 0.486 | 0.462 | 0.492
6 | NCI-H647 | 1.15 | 0.952 | 1.35 | 0.918 | 0.459 | 0.513 | 0.612 | 0.335 | 0.315 | 0.843 |  | 0.804 | 0.524 | 0.744 | 0.154 | 0.161 | 0.191 | 0.16 | 0.158
7 | NCI-H650 | 1.06 | 0.948 | 1.12 | 0.965 | 0.588 |  | 0.457 | 0.305 | 0.356 | 0.999 |  | 0.948 | 0.454 | 0.534 | 1.01 | 0.859 | 0.874 | 0.568 | 0.441
8 | NCI-H661 | 1.04 | 0.972 | 1.06 | 0.995 | 0.651 | 0.722 | 0.649 | 0.4 | 0.435 | 0.531 | 0.455 | 0.393 |  | 0.369 | 0.94 | 1.01 | 0.974 | 0.74 | 0.803
9 | NCI-H838 | 1.08 | 1.17 | 1.06 | 1.03 | 0.334 | 0.378 | 0.355 | 0.199 | 0.27 | 0.776 | 0.783 | 0.894 | 0.482 | 0.6 | 0.287 | 0.264 | 0.25 | 0.226 | 0.232
10 | NCI-H1355 | 0.973 | 0.968 | 1.05 | 0.919 | 0.287 | 0.323 | 0.384 | 0.256 | 0.298 | 0.694 | 0.903 | 0.956 | 0.678 | 0.717 | 0.939 | 1.07 | 1.07 | 0.856 | 0.875
11 | NCI-H1395 | 0.895 | 1 | 0.93 | 0.858 | 0.519 | 0.433 | 0.553 | 0.393 | 0.44 | 0.787 | 0.741 | 0.836 | 0.511 | 0.562 | 0.742 | 0.552 | 0.591 | 0.45 | 0.521
12 | NCI-H1437 | 1.21 | 1.21 | 1.38 | 1.23 | 0.983 | 0.855 | 1.07 | 0.471 | 0.567 | 0.727 | 0.747 | 0.769 | 0.592 | 0.421 | 0.314 | 0.307 | 0.306 | 0.274 | 0.225
13 | NCI-H1563 | 1.03 | 0.944 | 0.973 | 0.824 | 0.771 | 0.749 | 0.738 | 0.7 | 0.619 | 0.902 | 0.842 | 0.876 | 0.674 | 0.778 | 0.666 | 0.676 | 0.642 | 0.605 | 0.698
14 | NCI-H1650 | 1.11 | 1.06 | 1.31 | 0.755 | 0.536 | 0.636 | 0.569 | 0.347 | 0.447 | 0.754 |  | 0.688 | 0.602 | 0.681 | 0.332 | 0.295 | 0.372 | 0.287 | 0.361
15 | NCI-H1651 | 0.85 | 0.688 | 0.934 | 0.807 | 0.601 | 0.59 | 0.655 | 0.567 | 0.539 | 0.776 | 0.608 | 0.77 | 0.563 | 0.522 | 0.578 | 0.545 | 0.556 | 0.401 | 0.482
16 | NCI-H1666 | 0.897 | 0.969 | 1.13 | 0.932 | 0.684 | 0.765 | 0.918 | 0.66 | 0.8 | 0.283 | 0.616 | 0.556 | 0.517 | 0.417 | 0.902 | 0.964 | 0.905 | 0.735 | 0.82
17 | NCI-H1734 | 0.934 | 0.846 | 0.849 | 0.91 | 0.46 | 0.509 | 0.542 | 0.362 | 0.387 | 0.933 | 1.02 | 1.16 | 0.632 | 0.612 | 0.408 | 0.442 | 0.408 | 0.396 | 0.397

— the supplement of paper PMC10307832
